Assays:
[1] = Therapeutic window from PK versus PD relationship; details: human
Text: Pharmacokinetics and pharmacodynamics modeling was used to explore potential dosing regimens for Elvucitabine. A pharmacokinetics (PK) model was developed to describe both the plasma concentration-time data and excreted urinary amounts from previously completed studies with Elvucitabine. With the PK model in hand and pharmacodynamics (PD) results of previously completed studies, the relationship of PK and PD from an efficacy and toxicity standpoint is obtained. From the results of the PK and PD studies, a therapeutic window of Elvucitabine is defined and simulated dosing regimens ranging from 5 mg BID to 100 mg Q1 week were explored using ADAPT II® Pharmacokinetic and Pharmacodynamic Systems Analysis Software. From the simulated dosing regimen results, ten dosing regimens were identified allowing maintenance therapy with Elvucitabine at levels effective against both HIV and HBV while avoiding bone toxicity.
From the foregoing results, a therapeutic window of Elvucitabine was identified. It has been determined that a 5 mg QD dose is effective for HBV and, therefore, a plasma AUCss/24 of 300 μg·h/L was identified as the efficacy threshold.

[2] = Population PK analysis of plasma and urine data, study ACH443-011, 1×20 mg tablet PO; details: human, in vivo
Method: The PK model created included an individual compartmental PK analysis using ADAPT-II® and Population PK analysis using an iterative two-stage population modeling technique (IT2S®) of plasma and urine data from a study of healthy subjects, n=29, 1×20 mg tablet PO (ACH443-011). FIG. 1 illustrates the PK model of Elvucitabine according to a three compartment model characterized by two absorption peaks, each associated with a lag time and a first order absorption rate constant.
FIG. 2 illustrates an example of individual fit using a Population PK analysis (IT2S).

apparent volume of distribution (VSS) [2]: 1600 L | fraction unbound [2]: 0.396
Compound: Nc1nc(=O)n([C@H]2C=C[C@@H](CO)O2)cc1F [Elvucitabine, 4-amino-5-fluoro-1-((2R,5S)-5-(hydroxymethyl)-2,5-dihydrofuran-2-yl)pyrimidin-2(1H)-one]
Cmax [1]: > 40 ng/mL | central compartment (plasma) Cmin at onset of toxicity [1]: ≥ 23 ng/mL

— patent publication US7741334B2, “Low dose therapy for treating viral infections” (priority 2004, dated 2010)
